Results on 85 molecules are retold here after ChEMBL document CHEMBL1157539, “Thousands of chemical starting points for antimalarial lead identification” (Nature, 2010).

The test concerns Plasmodium falciparum. Kind of test: GSK_TCMDC: Inhibition of Plasmodium falciparum 3D7 in whole erythrocytes, using parasite LDH activity as an index of growth. The format is functional, organism-based. The following applies: Plasmodium falciparum, 3D7.

SMILES strings stand for the structures.

`O=C(CCc1c[nH]cn1)Nc1ccc(-c2ccc(-c3nc4cc(F)ccc4[nH]3)cc2)cc1` yielded an XC50 of 693 nM. Regarding `COc1csc2cc(Br)ccc12`, the XC50 worked out at 861 nM. As to `CCNc1cc(C(=O)N[C@@H](Cc2ccccc2)[C@H](O)CNCCC(C)(C)C)c(F)c(N2CCCCS2(=O)=O)c1`, the XC50 was determined as 797 nM. Turning to `C=Cc1cc(OC)c2c(c1)c(=O)oc1c2cc(OC)c2c(O)ccc([C@H]3O[C@H]([C@H](C)O)[C@H](O)[C@H]3O)c21`, the XC50 amounted to 794 nM. The result for `CCOC(=O)c1ccc(NC(=O)Nc2ccc(-c3cccc(-c4nc5cccc(C)c5[nH]4)c3)cc2)cc1` reads 145 nM. `Cc1cc(CNCCCCCCCNCc2ccc(Cl)cc2)ccc1O` displayed an XC50 of 975 nM.

`CCC(NC(=O)c1ccccc1NC(=O)c1ccc(C)cc1)C(=O)OC` (stereo not given) gave an XC50 of 762 nM. The molecule `Cn1nc(-c2ccc(NC(=O)Nc3cc(C(F)(F)F)cc(C(F)(F)F)c3)c(F)c2)c2cnc(NCCN3CCOCC3)nc21` registered an XC50 of 801 nM. Turning to `CN1CCN(CCCN(C(=O)Nc2cc(C(F)(F)F)cc(C(F)(F)F)c2)c2ccccc2Cc2ccccc2)CC1`, the XC50 turned out to be 1130 nM. `CC(ON1C(N)=NC(N)=NC1(C)C)c1ccccc1` (stereo not given) showed an XC50 of 10.9 nM. Molecule `O=C(Nc1cccc(-c2ccc(-c3nc4cc(C(F)(F)F)ccc4[nH]3)cc2)c1)Nc1ccc(Cl)c(Cl)c1` had an XC50 of 889 nM. Turning to `O=C(Nc1ccc(F)c(C(F)(F)F)c1)NC1CCN(CCCCCNC(=O)C2CC2c2ccc(Cl)c(Cl)c2)CC1` (stereo not given), the XC50 came out at 663 nM.

`CCCCCCN1CCCN(Cc2ccc(C(=O)Nc3ccc(C(C)C)cc3)cc2)CC1` gave an XC50 of 834 nM. In turn, `Cc1ccc(O)cc1Nc1ccnc2cc(-c3csc(CN(C)CCN(C)C)n3)ccc12` had an XC50 of 789 nM. As for `Cc1ccc(NCc2cccc(F)c2)cc1S(=O)(=O)N[C@@H]1CCN(C#N)C1`, the figure is 785 nM; as for `COc1cccc(-c2cc3nc4c(c(NCCCn5ccnc5)n3n2)CCCC4)c1`, 681 nM; as for `COc1ccc2c(=NN=Cc3cccc(Cl)c3)cc(C)[nH]c2c1`, 732 nM. Turning to `CCC(C)CN1CCN(c2ccc(NC(=O)c3cccs3)cc2)C(C)C1` (stereo not given), the XC50 was determined as 544 nM. The molecule `CC(=O)c1ccc(-c2ccc(C(=O)NCCCCN3CCC(c4ccc5c(c4O)CCCC5)CC3)cc2)cc1` returned an XC50 of 762 nM. `CCC(C(=O)Nc1ccccc1)n1nc(-c2ccc(C)c(S(=O)(=O)N3CCCCC3)c2)ccc1=O` (stereo not given) showed an XC50 of 1090 nM.

`CCOc1ccc2c(=NN=Cc3cccc(Cl)c3)cc(C)[nH]c2c1` yielded an XC50 of 864 nM. For `CCCCCN(C(=O)Nc1cc(C(F)(F)F)cc(C(F)(F)F)c1)C(C)c1nc2ccccc2c(=O)n1CC` (stereo not given), the XC50 was 787 nM. Consider `CCCNCc1ccc(-c2ccc(CN(CCOC)C(=O)[C@H]3CCCO3)cc2)nc1`, for which the XC50 stood at 745 nM. The result for `CC(C)NCc1ccc(-c2ccc(NC(=O)c3ccc(Cl)cc3)cc2)cc1` reads 910 nM; that for `N#Cc1ccc2c(c1)CN(CCC1CCC(NC(=O)c3cc4ccccc4cc3N)CC1)CC2` (stereo not given), 1040 nM. As to `CC(C)(NCc1ccc(OC(F)(F)F)cc1)c1nc(-c2ccc(Cl)c(O)c2)c(-c2ccncc2)[nH]1`, the XC50 was 940 nM.

In the case of `CCN(CC)CCOc1ccc(Nc2ncc3cc(-c4c(Cl)cccc4Cl)c(=O)n(C)c3n2)cc1` [PD-0166285], the XC50 was 1180 nM. `CC(C)(C)c1ccc(CN2CCC(NC(=O)c3ccc(-c4cccc(C(F)(F)F)c4)s3)CC2)cc1` came in with an XC50 of 359 nM.

In turn, `CCCCN(CCCC)CCNC(=O)c1cccc(NC(=O)N2CCc3cc(SC)c(C(F)(F)F)cc32)c1` gave an XC50 of 809 nM.

Regarding `CN1CCN(CC2(Nc3nccc(NCCc4cn(C)c5ccccc45)n3)CCCCC2)CC1`, the XC50 was 1810 nM. Molecule `COc1cccc(NC(=O)NC2CCN(c3ccnc(Nc4cc(OC)c(OC)c(OC)c4)n3)C2)c1` (stereo not given) showed an XC50 of 856 nM.

Molecule `CCc1c(C)nc(-n2nc(C)cc2NC(=O)CCc2ccccc2)[nH]c1=O` displayed an XC50 of 752 nM. As for `Nc1nc(N)c2c(ccc3c2ccn3Cc2ccccc2)n1`, the XC50 was 3.2 nM.

The molecule `O=C(NC1CCN(Cc2ccccc2O)C1)c1ccc(-c2ccccc2)cc1` (stereo not given) came in with an XC50 of 838 nM. As for `CN(C)CCCN1CCN(C(=O)c2cccc(-c3noc(C(F)(F)F)n3)c2)CC1`, the figure is 353 nM.

The molecule `COCCN1CCN(Cc2cccc(-c3ccc(-c4nc5ccccc5[nH]4)cc3)c2)CC1` registered an XC50 of 761 nM.

In turn, `O=C(/C=C/c1ccc(Cl)c(Cl)c1)NCCCCCN1CCCN(C(=O)Nc2ccc([N+](=O)[O-])cc2)CC1` yielded an XC50 of 615 nM. `CCN(CC)CCCC(C)Nc1ccnc2cc(Cl)ccc12` (stereo not given) [CHLOROQUINE PHOSPHATE]: the XC50 stood at 178 nM.

On to `CC(C)NCc1ccc(-c2cccc(-c3nc4cc(F)ccc4[nH]3)c2)cc1`, for which the XC50 came to 405 nM.

`CCCNC(=O)c1cncc(-c2ccc(CNC(CC)c3ccccc3)cc2)c1` (stereo not given) had an XC50 of 876 nM. Regarding `CC1CN(Cc2ccc(-c3ccc(-c4nc5cc(F)ccc5[nH]4)s3)cc2)CC(C)O1` (stereo not given), the XC50 was 876 nM. `O=C(N[C@H]1CCN(Cc2ccc(OCCCN3CCCCC3)cc2)C1)c1ccc(Oc2ccccc2)cc1` showed an XC50 of 784 nM. `CCC(C)C(COC(=O)c1cc(OC)c(OC)c(OC)c1)N(C)CCN(C)C(COC(=O)c1cc(OC)c(OC)c(OC)c1)C(C)CC` (stereo not given) yielded an XC50 of 947 nM. For `CCC(C(=O)Nc1cc(=O)[nH]c2nc(-c3ccco3)nn12)c1ccccc1` (stereo not given), the XC50 was found to be 844 nM.

`COc1cc(Nc2ccc3cc(S(=O)(=O)N4CCCCC4C)ccc3n2)cc(OC)c1OC` (stereo not given): the XC50 was 1240 nM. Molecule `c1ccc2sc(Sc3ncnc4sccc34)nc2c1` yielded an XC50 of 734 nM. The result for `Cn1nc(C(F)(F)F)c(-c2ccc(F)cc2)c1NC(=O)Nc1ccc(F)cc1F` reads 765 nM; that for `O=C(N[C@@H](Cc1ccccc1)C(=O)NCCN1CCCCC1)c1ccc(O)c(-c2ccc(Cl)c(Cl)c2)c1`, 1520 nM.

As for `O=C(/C=C/c1ccc(Cl)c(Cl)c1)NCCCCCN1CCCN(C(=S)Nc2ccc(Cl)cc2)CC1`, the XC50 amounted to 1130 nM. Take `CCCCN(CCCC)Cc1cc(N(C)c2ccc([N+](=O)[O-])cn2)ccc1O`: the XC50 was determined as 544 nM.

Molecule `CCCCCCCn1c(=O)c(C(=O)Nc2c(C)cccc2C)c(O)c2ccccc21` showed an XC50 of 910 nM. As to `CNCCCNCc1ccc(-c2ccc(F)c(Cl)c2)o1`, the XC50 stood at 752 nM. The result for `CC1(C)CC(NCCCCCCCOc2ccc(OCc3ccccc3)cc2)CC(C)(C)N1` reads 827 nM; that for `Cc1cccc(C)c1OC(=O)C(C)C(O)C1(Sc2ccccc2)CCN(C)CC1` (stereo not given), 734 nM. `COc1ccc(CCNCc2ccc3c(C)cc(N)nc3c2)cc1`: the XC50 worked out at 568 nM. As for `CCNc1cc(C(=O)N[C@@H](Cc2ccccc2)[C@H](O)CNCc2cccc(-n3ccnc3)c2)cc(N2CCCC2=O)c1`, the figure is 635 nM. The molecule `Cn1cnc(CCNC(=O)c2cccc(-c3ccc(-c4nc5cc(F)ccc5[nH]4)cc3)c2)c1` came in with an XC50 of 941 nM. In the case of `COc1ccc2[nH]ccc(=NN=Cc3ccc(F)cc3)c2c1`, the XC50 was found to be 720 nM. With `Cn1cncc1C(=O)Nc1cccc(-c2cccc(-c3nc4ccccc4[nH]3)c2)c1`, the XC50 came out at 635 nM. `COc1ccc(-n2nc(C)c3c2NC(=O)CC3c2ccccc2OCc2ccc(F)cc2)cc1` (stereo not given) came in with an XC50 of 855 nM. In turn, `COc1ccc2nccc([C@@H](O)CN3CCC(NCc4nc5cc(F)cc(F)c5[nH]4)CC3)c2c1` showed an XC50 of 573 nM. In the case of `Cn1ccnc1CNC(=O)c1ccc(-c2cccc(-c3nc4cc(F)ccc4[nH]3)c2)cc1`, the XC50 amounted to 980 nM. In turn, `CC(C)(Oc1c(C2CCN(CCCCNC(=O)c3ccc(-c4ccc(C#N)cc4)cc3)CC2)ccc2c1CCCC2)C(N)=O` had an XC50 of 696 nM.

In turn, `Clc1ccccc1/C=C/c1cncnc1Nc1ccc2[nH]c(Cc3ccccc3)nc2c1` registered an XC50 of 915 nM. `O=C(NCCCN1CCN(c2cccc(Cl)c2)CC1)c1ccc(-c2nc3cc(Cl)c(Cl)cc3[nH]2)cc1` showed an XC50 of 697 nM. Take `Cc1ccc(C(NC(=O)Cc2ccccc2)c2ccc3cccnc3c2O)cc1` (stereo not given): the XC50 turned out to be 623 nM. Molecule `Cc1cc(N[C@@H](CC(C)C)C(=O)NC2CCCC2)nc(NCCc2ccc(F)cc2)n1` came in with an XC50 of 794 nM. In the case of `C=C(C)COc1ccc(-c2n[nH]c(C(F)(F)F)c2-c2ccccc2OC)c(O)c1`, the XC50 amounted to 781 nM. In turn, `COc1ccc(-n2ccnc2SCC(=O)Nc2cc(C(F)(F)F)ccc2Cl)c(OC)c1` showed an XC50 of 35 nM.

With `O=C(NC(=S)NCc1ccncc1)c1ccccc1`, the XC50 stood at 1690 nM. The result for `O=S(=O)(NCCN1CCCC1)c1cccc(-c2cccc(CNCCc3cccs3)c2)c1` reads 753 nM.

Take `Cc1ccc(CON2C(N)=NC(N)=NC23CCCCC3)c2ccccc12`: the XC50 came out at 72.6 nM. For the molecule `O=C(Nc1ccc(OC2CCN(Cc3ccc(F)cc3)CC2)c(Cl)c1)c1ccco1`, the XC50 came out at 303 nM. The molecule `CNCCNC(=O)C1Cc2c([nH]c3c(C)cccc23)C(c2ccc(Cl)c(Cl)c2)N1` (stereo not given) came in with an XC50 of 716 nM. As for `O=C(NC1CCN(c2ccnc(Nc3ccc(F)cc3)n2)C1)c1cc2ccccc2s1` (stereo not given), the figure is 716 nM; as for `O=C(Nc1cccc(-c2cccc(-c3nc4cc(C(F)(F)F)ccc4[nH]3)c2)c1)c1cccnc1Cl`, 657 nM.

Turning to `COc1c(C=NNc2nc(=Nc3ccccc3)[nH]c(=Nc3ccccc3)[nH]2)ccc(Br)c1O`, the XC50 came out at 720 nM. Take `O=C(NCCc1cccc(F)c1)c1cc(Br)cc(N2CCN(c3ccncc3)CC2)c1`: the XC50 worked out at 764 nM. The result for `CN(C)CCCN1CCN(C(=O)c2cc3cc(-c4ccccc4)ccc3n2S(=O)(=O)c2ccccc2)CC1` reads 119 nM; that for `COc1cc(-c2nc(-c3ccncc3)c(-c3ccc4c(c3)CCC4=NO)[nH]2)ccc1OCCN1CCCCC1`, 789 nM; that for `CC[C@H]1CN2CC[C@@H]1C[C@H]2[C@H](O)c1cc(N2CCC(O)(c3ccccc3)CC2)nc2ccc(OC)cc12`, 90 nM.

In turn, `Cc1cc(NCCC(=O)NCCOc2ccccc2)nc(NCc2ccccc2C)n1` registered an XC50 of 867 nM. In the case of `CC(C)(CNC(=O)[C@H]1CCCCN1)c1nc(-c2ccc(Cl)c(O)c2)c(-c2ccncc2)[nH]1`, the XC50 came out at 727 nM. Molecule `CCNc1cc(C(=O)N[C@@H](Cc2ccccc2)[C@H](O)CNC2CC3CCC2C3)cc(N2CCCCS2(=O)=O)c1` (stereo not given in full) had an XC50 of 237 nM. With `C/C=C/COc1ccc(-c2c(C)[nH]c(C)c(Cl)c2=O)cc1`, the XC50 worked out at 197 nM.
